tested on: PDGFR; assay: Rat A10 cell proliferation assay; assay type: cell-based; settings: Table 1; Rat A10 cells, recombinant rat PDGF-BB, CellTiter-Glo after 68 hours
Procedure: Compounds of Formula (I) provided herein were assayed to measure their capacity to inhibit c-kit and PDGFR kinases using the appropriate assay described below: c-Kit inhibition was evaluated using the Mo7e cell proliferation assay, and PDGFR inhibition was evaluated using the Rat A10 cell proliferation assay and the Human TG/HA-VSMC cell proliferation assay.
Rat A10 cells (ATCC) were resuspended in DMEM supplemented with 1% FBS and 10 ng/mL recombinant rat PDGF-BB at 20,000 cells/mL. The cells were aliquoted into 384 well plates at 50 μL/well and incubated for 4 hours at 37° C. 0.5 μL of test compound 3-fold serially diluted in DMSO was added to each well. The plates were returned to the incubator for a further 68 hours. 25 μL of CellTiter-Glo (Promega) was added to each well and the plates were incubated on the bench for 15 minutes. Luminescence was then read using a CLIPR CCD camera (Molecular Devices).

Going from `Cn1nccc1-c1ccn2c(C(=O)Nc3cc(C(=O)NC4Cc5ccccc5C4O)ccc3F)cnc2c1` (stereo not shown) [F14, N-{2-fluoro-5-[(1-hydroxy-2,3-dihydro-1H-inden-2-yl)carbamoyl]phenyl}-7-(1-methyl-1H-pyrazol-5-yl)imidazo[1,2-a]pyridine-3-carboxamide] to `Cc1ccn2c(C(=O)Nc3cc(C(=O)N[C@@H]4c5ccccc5C[C@@H]4O)ccc3F)cnc2c1` [F26, N-(2-fluoro-5-{[(1R,2S)-2-hydroxy-2,3-dihydro-1H-inden-1-yl]carbamoyl}phenyl)-7-methylimidazo[1,2-a]pyridine-3-carboxamide], the IC50 rises from 32 nM to 49 nM (1.5-fold). The first is the more potent here.

Going from `O=C(NC(CO)c1ccccc1)c1ccc(F)c(NC(=O)c2cnc3ccccn23)c1` (stereo not shown) [F4, N-{2-fluoro-5-[(2-hydroxy-1-phenylethyl)carbamoyl]phenyl}imidazo[1,2-a]pyridine-3-carboxamide] to `O=C(N[C@@H]1c2ccccc2C[C@H]1O)c1ccc(F)c(NC(=O)c2cnc3ccccn23)c1` [F7, N-(2-fluoro-5-{[(1R,2R)-2-hydroxy-2,3-dihydro-1H-inden-1-yl]carbamoyl}phenyl)imidazo[1,2-a]pyridine-3-carboxamide], the IC50 rises from 89 nM to 138 nM (1.6-fold).

Compared with `COC[C@H](NC(=O)c1ccc(F)c(NC(=O)c2cnc3cc(C)ccn23)c1)[C@@H](O)c1ccccc1` [F126, N-(2-fluoro-5-{[(1S,2S)-1-hydroxy-3-methoxy-1-phenylpropan-2-yl]carbamoyl}phenyl)-7-methylimidazo[1,2-a]pyridine-3-carboxamide], `O=C(NC[C@@H](O)c1ccc(Cl)cc1)c1ccc(F)c(NC(=O)c2cnc3ccccn23)c1` [F121, N-(5-{[(2S)-2-(4-chlorophenyl)-2-hydroxyethyl]carbamoyl}-2-fluorophenyl)imidazo[1,2-a]pyridine-3-carboxamide] is 1.6-fold higher in IC50: 8 nM for the first, 13 nM for the second.

Going from `O=C(N[C@@H]1CCCC[C@H]1CO)c1ccc(F)c(NC(=O)c2cnc3ccccn23)c1` [F24, N-(2-fluoro-5-{[(1R,2R)-2-(hydroxymethyl)cyclohexyl]carbamoyl}phenyl)imidazo[1,2-a]pyridine-3-carboxamide] to `C[C@@]1(O)CCCC[C@@H]1NC(=O)c1ccc(F)c(NC(=O)c2cnc3ccccn23)c1` [F124, N-(2-fluoro-5-{[(1S,2R)-2-hydroxy-2-methylcyclohexyl]carbamoyl}phenyl)imidazo[1,2-a]pyridine-3-carboxamide], the IC50 rises from 94 nM to 187 nM (2-fold). The first is the more potent here.

Compared with `Cc1ccc(C(=O)NC(CO)C(C)C)cc1NC(=O)c1cnc2ccccn12` (stereo not shown) [F3, N-{5-[(1-hydroxy-3-methylbutan-2-yl)carbamoyl]-2-methylphenyl}imidazo[1,2-a]pyridine-3-carboxamide], `Cc1ccc(C(=O)N[C@@H]2c3ccccc3C[C@H]2O)cc1NC(=O)c1cnc2ccccn12` [F22, N-(5-{[(1R,2R)-2-hydroxy-2,3-dihydro-1H-inden-1-yl]carbamoyl}-2-methylphenyl)imidazo[1,2-a]pyridine-3-carboxamide] is 6.2-fold lower in IC50: 175 nM for the first, 28 nM for the second.

`O=C(N[C@H]1c2ccccc2C[C@@H]1O)c1ccc(F)c(NC(=O)c2cnc3ccccn23)c1` [F8, N-(2-fluoro-5-{[(1S,2S)-2-hydroxy-2,3-dihydro-1H-inden-1-yl]carbamoyl}phenyl)imidazo[1,2-a]pyridine-3-carboxamide] and `O=C(N[C@@H]1c2ccccc2C[C@@H]1O)c1ccc(F)c(NC(=O)c2cnc3ccccn23)c1` [F5, N-(2-fluoro-5-{[(1R,2S)-2-hydroxy-2,3-dihydro-1H-inden-1-yl]carbamoyl}phenyl)imidazo[1,2-a]pyridine-3-carboxamide] are within 1.5-fold of each other in IC50: 38 nM for the first, 35 nM for the second.

First: Cc1ccc2ncc(C(=O)Nc3cc(C(=O)N[C@@H]4c5cc(Cl)ccc5C[C@@H]4O)ccc3F)n2c1 (stereo in doubt) [F33, N-(5-{[(1R,2S)-6-chloro-2-hydroxy-2,3-dihydro-1H-inden-1-yl]carbamoyl}-2-fluorophenyl)-6-methylimidazo[1,2-a]pyridine-3-carboxamide]
Second: CN(C)CCCOc1ccc(-c2ccn3c(C(=O)Nc4cc(C(=O)N[C@H]5Cc6ccccc6[C@H]5O)ccc4F)cnc3c2)cn1 (stereo in doubt) [F32, 7-{6-[3-(dimethylamino)propoxy]pyridin-3-yl}-N-(2-fluoro-5-{[(1R,2S)-1-hydroxy-2,3-dihydro-1H-inden-2-yl]carbamoyl}phenyl)imidazo[1,2-a]pyridine-3-carboxamide]
The IC50 of the first is 3.7-fold higher: 163 nM for the first, 44 nM for the second. The second is the more potent here.

same assay, conditions: Table 2; Rat A10 cells, recombinant rat PDGF-BB, CellTiter-Glo after 68 hours

Going from `O=C(NCC1(O)CCNCC1)c1ccc(F)c(NC(=O)c2cnc3ccccn23)c1` [F100, N-(2-fluoro-5-{[(4-hydroxypiperidin-4-yl)methyl]carbamoyl}phenyl)imidazo[1,2-a]pyridine-3-carboxamide] to `O=C(N[C@H]1CCCC[C@@H]1CO)c1ccc(F)c(NC(=O)c2cnc3ccccn23)c1` [F51, N-(2-fluoro-5-{[(1S,2S)-2-(hydroxymethyl)cyclohexyl]carbamoyl}phenyl)imidazo[1,2-a]pyridine-3-carboxamide], the IC50 falls from over 9020 nM to 387 nM.

`O=C(N[C@H](CO)[C@H](O)c1ccccc1)c1ccc(F)c(NC(=O)c2cnc3ccccn23)c1` [F107, N-(5-{[(1R,2R)-1,3-dihydroxy-1-phenylpropan-2-yl]carbamoyl}-2-fluorophenyl)imidazo[1,2-a]pyridine-3-carboxamide] and `O=C(NC[C@@H](O)c1ccccc1)c1ccc(F)c(NC(=O)c2cnc3ccccn23)c1` [F94, N-(2-fluoro-5-{[(2S)-2-hydroxy-2-phenylethyl]carbamoyl}phenyl)imidazo[1,2-a]pyridine-3-carboxamide] are within 1.5-fold of each other in IC50: 265 nM for the first, 239 nM for the second.

Going from `O=C(N[C@@H]1c2ccccc2C[C@@H]1O)c1ccc(F)c(NC(=O)c2cnc3ccc(-n4ccnc4)cn23)c1` (stereo in doubt) [F72, N-(2-fluoro-5-{[(1R,2S)-2-hydroxy-2,3-dihydro-1H-inden-1-yl]carbamoyl}phenyl)-6-(1H-imidazol-1-yl)imidazo[1,2-a]pyridine-3-carboxamide] to `O=C(N[C@@H]1c2ccccc2C[C@@H]1O)c1ccc(F)c(NC(=O)c2cnc3ccc(C(F)(F)F)cn23)c1` (stereo in doubt) [F58, N-(2-fluoro-5-{[(1R,2S)-2-hydroxy-2,3-dihydro-1H-inden-1-yl]carbamoyl}phenyl)-6-(trifluoromethyl)imidazo[1,2-a]pyridine-3-carboxamide], the IC50 falls from 2860 nM to 584 nM (4.9-fold). The second is the more potent here.

Going from `O=C(N[C@H](CO)CC1CCCCC1)c1cccc(NC(=O)c2cnc3ccccn23)c1` [F48, N-(3-{[(2S)-1-cyclohexyl-3-hydroxypropan-2-yl]carbamoyl}phenyl)imidazo[1,2-a]pyridine-3-carboxamide] to `C[C@@H](CO)NC(=O)c1cccc(NC(=O)c2cnc3ccccn23)c1` [F78, N-(3-{[(2S)-1-hydroxypropan-2-yl]carbamoyl}phenyl)imidazo[1,2-a]pyridine-3-carboxamide], the IC50 rises from 363 nM to over 10000 nM.

Compared with `O=C(N[C@@H]1CCCC(F)(F)[C@H]1O)c1ccc(F)c(NC(=O)c2cnc3ccccn23)c1` [F99, N-(5-{[(1R,2S)-3,3-difluoro-2-hydroxycyclohexyl]carbamoyl}-2-fluorophenyl)imidazo[1,2-a]pyridine-3-carboxamide], `O=C(N[C@@H]1CCC[C@H]1O)c1ccc(F)c(NC(=O)c2cnc3ccccn23)c1` [F75, N-(2-fluoro-5-{[(1R,2R)-2-hydroxycyclopentyl]carbamoyl}phenyl)imidazo[1,2-a]pyridine-3-carboxamide] is 12-fold higher in IC50: 325 nM for the first, 3840 nM for the second.

Compared with `Cc1ccc2ncc(C(=O)Nc3cc(C(=O)N[C@@H]4c5ccccc5C[C@@H]4O)c(Cl)cc3F)n2c1` [F85, N-(4-chloro-2-fluoro-5-{[(1R,2S)-2-hydroxy-2,3-dihydro-1H-inden-1-yl]carbamoyl}phenyl)-6-methylimidazo[1,2-a]pyridine-3-carboxamide], `[2H]c1c([2H])c([2H])n2c(C(=O)Nc3cc(C(=O)N[C@@H]4c5ccccc5C[C@@H]4O)ccc3F)cnc2c1[2H]` [F83, N-(2-fluoro-5-{[(1R,2S)-2-hydroxy-2,3-dihydro-1H-inden-1-yl]carbamoyl}phenyl)-5,6,7,8-tetrahydrogenioimidazo[1,2-a]pyridine-3-carboxamide] is 14-fold lower in IC50: 4020 nM for the first, 289 nM for the second.

`O=C(N[C@@H]1c2ccccc2C[C@@H]1O)c1cccc(NC(=O)c2cnc3ccccn23)c1` (stereo in doubt) [F47, N-(3-{[(1R,2S)-2-hydroxy-2,3-dihydro-1H-inden-1-yl]carbamoyl}phenyl)imidazo[1,2-a]pyridine-3-carboxamide] and `O=C(N[C@@H]1Cc2ccccc2[C@@H]1O)c1ccc(F)c(NC(=O)c2cnc3ccccn23)c1` [F38, N-(2-fluoro-5-{[(1S,2R)-1-hydroxy-2,3-dihydro-1H-inden-2-yl]carbamoyl}phenyl)imidazo[1,2-a]pyridine-3-carboxamide] are within 1.5-fold of each other in IC50: 356 nM for the first, 248 nM for the second.

Compared with `CC(C)(O)[C@@H]1CCCC[C@@H]1NC(=O)c1ccc(F)c(NC(=O)c2cnc3ccccn23)c1` [F106, N-(2-fluoro-5-{[(1S,2R)-2-(2-hydroxypropan-2-yl)cyclohexyl]carbamoyl}phenyl)imidazo[1,2-a]pyridine-3-carboxamide], `O=C(N[C@H]1CC[C@H](O)CC1)c1cccc(NC(=O)c2cnc3ccccn23)c1` [F76, N-{3-[(4-hydroxycyclohexyl)carbamoyl]phenyl}imidazo[1,2-a]pyridine-3-carboxamide] is 12-fold higher in IC50: 813 nM for the first, 9420 nM for the second. The first is the more potent here.

`O=C(N[C@H]1c2ccccc2C[C@H]1O)c1ccc(F)c(NC(=O)c2cnc3cc(N4CCOCC4)ccn23)c1` [F71, N-(2-fluoro-5-{[(1S,2R)-2-hydroxy-2,3-dihydro-1H-inden-1-yl]carbamoyl}phenyl)-7-(morpholin-4-yl)imidazo[1,2-a]pyridine-3-carboxamide] was tested, and the IC50 was 2180 nM.

Reference: patent US20140206682A1, “COMPOUNDS AND COMPOSITIONS AS PDGFR KINASE INHIBITORS” (NOVARTIS PHARMACEUTICALS UK LIMITED, priority 2011, published 2014)
